Key:
[1] = molecular target: SARS-CoV-2 3CL^Pro (Severe acute respiratory syndrome coronavirus 2, UniProt P0DTD1); test: Enzymatic inhibitory activity assay; format: biochemical; conditions: IC50 compared with positive control 1
[2] = tested on: SARS-CoV-2 (WIV04); test: Anti-viral activity assay; format: cell-based

SMILES | reduction of SARS-CoV-2 viral RNA [2] | other results
CC(C)C[C@H](NC(=O)[C@@H](NC(=O)c1ccc(Cl)cc1)C(C)C)C(=O)N[C@H](C=O)C[C@@H]1CCCNC1=O [Compound 17w, 4-chloro-N-((S)-3-methyl-1-(((S)-4-methyl-1-oxo-1-(((S)-1-oxo-3-((S)-2-oxopiperidin-3-yl)propan-2-yl)amino)pentan-2-yl)amino)-1-oxobutan-2-yl)benzamide] | – | increased inhibitory potency versus positive control 1 [1]: 4 fold
CC(C)C[C@H](NC(=O)/C=C/c1ccccc1)C(=O)N[C@H](C=O)C[C@@H]1CCNC1=O [Compound 10b, (S)-2-cinnamamido-4-methyl-N-((S)-1-oxo-3-((S)-2-oxopyrrolidin-3-yl)propan-2-yl)pentanamide] | more than 2 logs | –
CC(C)C[C@H](NC(=O)[C@H](CC1CCCCC1)NC(=O)/C=C/c1ccccc1)C(=O)N[C@H](C=O)C[C@@H]1CCCNC1=O [Compound 14d, (S)-2-((S)-2-cinnamamido-3-cyclohexylpropanamido)-4-methyl-N-((S)-1-oxo-3-((S)-2-oxopiperidin-3-yl)propan-2-yl)pentanamide] | more than 2 logs | –
CC(C)C[C@H](NC(=O)[C@@H](NC(=O)/C=C/c1ccccc1)C(C)C)C(=O)N[C@H](C=O)C[C@@H]1CCCNC1=O [Compound 14c, (S)-2-((S)-2-cinnamamido-3-methylbutanamido)-4-methyl-N-((S)-1-oxo-3-((S)-2-oxopiperidin-3-yl)propan-2-yl)pentanamide] | – | antiviral activity against SARS-CoV-2 (in words) [2]: no antiviral activity
CC(C)(C)[C@H](NC(=O)/C=C/c1ccccc1)C(=O)N[C@H](C=O)C[C@@H]1CCCNC1=O [Compound 10h, (S)-2-cinnamamido-3,3-dimethyl-N-((S)-1-oxo-3-((S)-2-oxopiperidin-3-yl)propan-2-yl)butanamide] | more than 2 logs | –
CCCC[C@H](NC(=O)/C=C/c1ccccc1)C(=O)N[C@H](C=O)C[C@@H]1CCNC1=O [Compound 10c, (S)-2-cinnamamido-N-((S)-1-oxo-3-((S)-2-oxopyrrolidin-3-yl)propan-2-yl)hexanamide] | more than 2 logs | –
CC(C)C[C@H](NC(=O)/C=C/c1ccccc1)C(=O)N[C@H](C=O)C[C@@H]1CCCNC1=O [Compound 10g, (S)-2-cinnamamido-4-methyl-N-((S)-1-oxo-3-((S)-2-oxopiperidin-3-yl)propan-2-yl)pentanamide] | more than 2 logs | –
CC(C)C[C@H](NC(=O)[C@@H](NC(=O)c1ccc2ccccc2c1)C(C)C)C(=O)N[C@H](C=O)C[C@@H]1CCCNC1=O [Compound 17i, N-((S)-3-methyl-1-(((S)-4-methyl-1-oxo-1-(((S)-1-oxo-3-((S)-2-oxopiperidin-3-yl)propan-2-yl)amino)pentan-2-yl)amino)-1-oxobutan-2-yl)-2-naphthamide] | more than 2 logs | –
